Laboratory results reported in patent US11844767B2, “Composition and methods for stimulating clearance of amyloid-beta protein” (Rush University Medical Center, priority 2016, dated 2023).

Tests used:
LDLR = experiment: Quantitative RT-PCR of LDLR expression in astrocytes; format: cell-based, mouse
Experimental: The mRNA quantification was performed using the ABI-Prism7700 sequence detection system using SYBR Select master mix. The mRNA expression of the targeted genes was normalized to the level of Gapdh mRNA and data was processed by the ABI Sequence Detection System 1.6 software.

TFEB = details: alone and in conjunction with all-trans-retinoic acid; cited from earlier work

## Cc1ccc(C)c(OCCCC(C)(C)C(=O)O)c1 [GFB, gemfibrozil]
LDLR; PPARα(−/−) cells
  expression of LDLR: not
LDLR; WT astrocytes
  expression of LDLR: increased
TFEB
  TFEB in brain cells: capable of enhancing TFEB
